Data: patent US20240398805A1, “QUINAZOLINE DERIVED COMPOUNDS AS EGFR INHIBITORS AND THEIR USES THEREOF” (ACCUTAR BIOTECHNOLOGY INC., priority 2021, published 2024)

Columns and labels:
Assay type in all cases: cell-based
HCC827 cells = assay: Cell growth inhibition (CellTiter-Glo, 3 days) in HCC827; details: Homo sapiens, 72 h, 3 days after administration
Summary of the method: (§1)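 Growth inhibition was scored by CellTiter-Glo luminescence after 3-day compound exposure at various concentrations. Cells were plated at 5000/well the day before treatment: A431 in DMEM and HCC827 in RPMI, each with 10% FBS.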

[1] = test system: HCC827-SVD cells (human EGFR exon 20 insertion mutant D770_N771 insSVD); assay: Cell growth inhibition (CellTiter-Glo, 3 days) in HCC827-SVD; details: 72 h, 3 days after administration
Summary of the method: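 HCC827 cells carrying lentiviral codon-optimized EGFR D770_N771 insSVD, with endogenous EGFR knocked out by CRISPR (single clone), seeded at 5000 cells/well in RPMI with 10% FBS. Viability read by CellTiter-Glo luminescence.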

[2] = test system: HCC827-ASV cells (human EGFR exon 20 insertion mutant A769_D770insASV); assay: Cell growth inhibition (CellTiter-Glo, 3 days) in HCC827-ASV; details: 72 h, 3 days after administration
Summary of the method: (§2)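 Growth inhibition used a CellTiter-Glo luminescence read-out after 3 days of compound exposure at various concentrations. Cells were plated the day before at 5000/well in RPMI plus 10% FBS. The lines are HCC827 transduced by lentivirus with codon-optimized EGFR ASV or ERBB2 YVMA exon 20 insertions.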

[3] = test system: HCC827-YVMA cells (human ERBB2 exon20 insertion mutant A775_G776ins YVMA); assay: Cell growth inhibition (CellTiter-Glo, 3 days) in HCC827-YVMA; details: 72 h, 3 days after administration
Summary of the method: as §2

A431 cells = assay: Cell growth inhibition (CellTiter-Glo, 3 days) in A431; details: Homo sapiens, A-431, 72 h, 3 days after administration
Summary of the method: as §1

SMILES	GI50 (HCC827 cells) [nM]	GI50 [1] [nM]	GI50 [2] [nM]	GI50 [3] [nM]	GI50 (A431 cells) [nM]
C=CC(=O)N1CCC(Nc2cc3c(Nc4ccc(Oc5ccnc(-c6cccc(C)c6)c5)cc4F)ncnc3cc2OC)CC1 [Example 234, 1-(4-((4-((2-fluoro-4-((2-(m-tolyl)pyridin-4-yl)oxy)phenyl)amino)-7-methoxyquinazolin-6-yl)amino)piperidin-1-yl)prop-2-en-1-one]	60 to 100	30 to 60	< 30	< 30	300 to 600
C=CC(=O)N1CCC(Nc2cc3c(Nc4ccc(Oc5ccnc(-c6ccc(C)cc6)c5)cc4F)ncnc3cc2OC)CC1 [Example 235, 1-(4-((4-((2-fluoro-4-((2-(p-tolyl)pyridin-4-yl)oxy)phenyl)amino)-7-methoxyquinazolin-6-yl)amino)piperidin-1-yl)prop-2-en-1-one]	60 to 100	30 to 60	30 to 60	60 to 100	600 to 1000
C=CC(=O)N1CCC(Nc2cc3c(Nc4ccc(Oc5ccnc(-c6ccccn6)c5)cc4F)ncnc3cc2OC)CC1 [Example 236, 1-(4-((4-((4-([2,2′-bipyridin]-4-yloxy)-2-fluorophenyl)amino)-7-methoxyquinazolin-6-yl)amino)piperidin-1-yl)prop-2-en-1-one]	100 to 300	< 30	< 30	< 30	≥ 1000
C=CC(=O)N1CCC(Nc2cc3c(Nc4ccc(Oc5ccnc(-c6cccnc6)c5)cc4F)ncnc3cc2OC)CC1 [Example 237, 1-(4-((4-((4-([2,3′-bipyridin]-4-yloxy)-2-fluorophenyl)amino)-7-methoxyquinazolin-6-yl)amino)piperidin-1-yl)prop-2-en-1-one]	300 to 600	30 to 60	60 to 100	< 30	≥ 1000
C=CC(=O)N1CCC(Nc2cc3c(Nc4ccc(Oc5ccnc(-c6ccncc6)c5)cc4F)ncnc3cc2OC)CC1 [Example 238, 1-(4-((4-((4-([2,4′-bipyridin]-4-yloxy)-2-fluorophenyl)amino)-7-methoxyquinazolin-6-yl)amino)piperidin-1-yl)prop-2-en-1-one]	100 to 300	< 30	< 30	< 30	≥ 1000
C=CC(=O)N1CCC(Nc2cc3c(Nc4ccc(Oc5ccnc(N6CC7CCCC7C6)c5)cc4F)ncnc3cc2OC)CC1 (centres unmarked) [Example 239, 1-(4-((4-((2-fluoro-4-((2-(hexahydrocyclopenta [c]pyrrol-2(1H)-yl)pyridin-4-yl)oxy)phenyl)amino)-7-methoxyquinazolin-6-yl)amino)piperidin-1-yl)prop-2-en-1-one]	< 30	< 30	60 to 100	60 to 100	300 to 600
C=CC(=O)N1CCC(Nc2cc3c(Nc4ccc(Oc5ccnc(N6CC7CN(C)CC7C6)c5)cc4F)ncnc3cc2OC)CC1 (centres unmarked) [Example 240, 1-(4-((4-((2-fluoro-4-((2-(5-methylhexahydropyrrolo[3,4-c]pyrrol-2(1H)-yl)pyridin-4-yl)oxy)phenyl)amino)-7-methoxyquinazolin-6-yl)amino)piperidin-1-yl)prop-2-en-1-one]	600 to 1000	300 to 600	300 to 600	300 to 600	≥ 1000
C=CC(=O)N1CCC(Nc2cc3c(Nc4ccc(Oc5ccnc(N6C[C@H]7CCCC[C@H]7C6)c5)cc4F)ncnc3cc2OC)CC1 [Example 241, 1-(4-((4-((2-fluoro-4-((2-((3aR,7aS)-octahydro-2H-isoindol-2-yl)pyridin-4-yl)oxy)phenyl)amino)-7-methoxyquinazolin-6-yl)amino)piperidin-1-yl)prop-2-en-1-one]	< 30	30 to 60	60 to 100	60 to 100	600 to 1000
C=CC(=O)N1CCC(Nc2cc3c(Nc4ccc(Oc5ccnc(N6CCCN(C)CC6)c5)cc4F)ncnc3cc2OC)CC1 [Example 242, 1-(4-((4-((2-fluoro-4-((2-(4-methyl-1,4-diazepan-1-yl)pyridin-4-yl)oxy)phenyl)amino)-7-methoxyquinazolin-6-yl)amino)piperidin-1-yl)prop-2-en-1-one]	≥ 1000	100 to 300	100 to 300	100 to 300	≥ 1000
C=CC(=O)N1CCC(Nc2cc3c(Nc4ccc(Oc5ccnc(NC6CC6)c5)cc4F)ncnc3cc2OC)CC1 [Example 244, 1-(4-((4-((4-((2-(cyclopropylamino)pyridin-4-yl)oxy)-2-fluorophenyl)amino)-7-methoxyquinazolin-6-yl)amino)piperidin-1-yl)prop-2-en-1-one]	< 30	< 30	< 30	< 30	60 to 100
C=CC(=O)N1CCC(Nc2cc3c(Nc4ccc(Oc5ccnc(NC(C)(C)C)c5)cc4F)ncnc3cc2OC)CC1 [Example 245, 1-(4-((4-((4-((2-(tert-butylamino)pyridin-4-yl)oxy)-2-fluorophenyl)amino)-7-methoxyquinazolin-6-yl)amino)piperidin-1-yl)prop-2-en-1-one]	100 to 300	30 to 60	< 30	< 30	300 to 600
C=CC(=O)N1CCC(Nc2cc3c(Nc4ccc(Oc5ccnc(NC6CCCC6)c5)cc4F)ncnc3cc2OC)CC1 [Example 246, 1-(4-((4-((4-((2-(cyclopentylamino)pyridin-4-yl)oxy)-2-fluorophenyl)amino)-7-methoxyquinazolin-6-yl)amino)piperidin-1-yl)prop-2-en-1-one]	30 to 60	< 30	< 30	< 30	100 to 300
C=CC(=O)N1CCC(Nc2cc3c(Nc4ccc(Oc5ccnc(N[C@H]6CCOC6)c5)cc4F)ncnc3cc2OC)CC1 [Example 247, (S)-1-(4-((4-((2-fluoro-4-((2-((tetrahydrofuran-3-yl)amino)pyridin-4-yl)oxy)phenyl)amino)-7-methoxyquinazolin-6-yl)amino)piperidin-1-yl)prop-2-en-1-one]	100 to 300	60 to 100	60 to 100	30 to 60	600 to 1000
C=CC(=O)N1CCC(Nc2cc3c(Nc4ccc(Oc5ccnc(N[C@@H]6CCOC6)c5)cc4F)ncnc3cc2OC)CC1 [Example 248, (R)-1-(4-((4-((2-fluoro-4-((2-((tetrahydrofuran-3-yl)amino)pyridin-4-yl)oxy)phenyl)amino)-7-methoxyquinazolin-6-yl)amino)piperidin-1-yl)prop-2-en-1-one]	60 to 100	30 to 60	30 to 60	30 to 60	300 to 600
C=CC(=O)N1CCC(Nc2cc3c(Nc4ccc(Oc5ccnc(N6CCC[C@H]6C)c5)cc4F)ncnc3cc2OC)CC1 [Example 249, (R)-1-(4-((4-((2-fluoro-4-((2-(2-methylpyrrolidin-1-yl)pyridin-4-yl)oxy)phenyl)amino)-7-methoxyquinazolin-6-yl)amino)piperidin-1-yl)prop-2-en-1-one]	100 to 300	30 to 60	60 to 100	60 to 100	600 to 1000
C=CC(=O)N1CCC(Nc2cc3c(Nc4ccc(Oc5ccnc(N6CC[C@H](CO)C6)c5)cc4F)ncnc3cc2OC)CC1 [Example 250, (S)-1-(4-((4-((2-fluoro-4-((2-(3-(hydroxymethyl)pyrrolidin-1-yl)pyridin-4-yl)oxy)phenyl)amino)-7-methoxyquinazolin-6-yl)amino)piperidin-1-yl)prop-2-en-1-one]	100 to 300	< 30	< 30	< 30	≥ 1000
C=CC(=O)N1CCC(Nc2cc3c(Nc4ccc(Oc5ccnc(N6CC[C@@H](CO)C6)c5)cc4F)ncnc3cc2OC)CC1 [Example 251, (R)-1-(4-((4-((2-fluoro-4-((2-(3-(hydroxymethyl)pyrrolidin-1-yl)pyridin-4-yl)oxy)phenyl)amino)-7-methoxyquinazolin-6-yl)amino)piperidin-1-yl)prop-2-en-1-one]	100 to 300	< 30	30 to 60	30 to 60	300 to 600
C=CC(=O)N1CCC(Nc2cc3c(Nc4ccc(Oc5ccnc(N6CCC[C@@H]6C)c5)cc4F)ncnc3cc2OC)CC1 [Example 252, (S)-1-(4-((4-((2-fluoro-4-((2-(2-methylpyrrolidin-1-yl)pyridin-4-yl)oxy)phenyl)amino)-7-methoxyquinazolin-6-yl)amino)piperidin-1-yl)prop-2-en-1-one]	100 to 300	30 to 60	30 to 60	30 to 60	600 to 1000
C=CC(=O)N1CCC(Nc2cc3c(Nc4ccc(Oc5ccnc(N6C[C@@H](F)[C@@H](F)C6)c5)cc4F)ncnc3cc2OC)CC1 [Example 253, 1-(4-((4-((4-((2-((3S,4R)-3,4-difluoropyrrolidin-1-yl)pyridin-4-yl)oxy)-2-fluorophenyl)amino)-7-methoxyquinazolin-6-yl)amino)piperidin-1-yl)prop-2-en-1-one]	100 to 300	30 to 60	30 to 60	30 to 60	300 to 600
